Among the data in paper doi:10.1101/2025.11.13.688260v1 (biorxiv, 2025) are IC50 values, retold here.

In the assay the target is human CBL-B (Homo sapiens, UniProt Q13191). Briefly: TR-FRET ubiquitin ligase assay. Type of assay: biochemical.
Chain of human CBL-B (Q13191 whole entry): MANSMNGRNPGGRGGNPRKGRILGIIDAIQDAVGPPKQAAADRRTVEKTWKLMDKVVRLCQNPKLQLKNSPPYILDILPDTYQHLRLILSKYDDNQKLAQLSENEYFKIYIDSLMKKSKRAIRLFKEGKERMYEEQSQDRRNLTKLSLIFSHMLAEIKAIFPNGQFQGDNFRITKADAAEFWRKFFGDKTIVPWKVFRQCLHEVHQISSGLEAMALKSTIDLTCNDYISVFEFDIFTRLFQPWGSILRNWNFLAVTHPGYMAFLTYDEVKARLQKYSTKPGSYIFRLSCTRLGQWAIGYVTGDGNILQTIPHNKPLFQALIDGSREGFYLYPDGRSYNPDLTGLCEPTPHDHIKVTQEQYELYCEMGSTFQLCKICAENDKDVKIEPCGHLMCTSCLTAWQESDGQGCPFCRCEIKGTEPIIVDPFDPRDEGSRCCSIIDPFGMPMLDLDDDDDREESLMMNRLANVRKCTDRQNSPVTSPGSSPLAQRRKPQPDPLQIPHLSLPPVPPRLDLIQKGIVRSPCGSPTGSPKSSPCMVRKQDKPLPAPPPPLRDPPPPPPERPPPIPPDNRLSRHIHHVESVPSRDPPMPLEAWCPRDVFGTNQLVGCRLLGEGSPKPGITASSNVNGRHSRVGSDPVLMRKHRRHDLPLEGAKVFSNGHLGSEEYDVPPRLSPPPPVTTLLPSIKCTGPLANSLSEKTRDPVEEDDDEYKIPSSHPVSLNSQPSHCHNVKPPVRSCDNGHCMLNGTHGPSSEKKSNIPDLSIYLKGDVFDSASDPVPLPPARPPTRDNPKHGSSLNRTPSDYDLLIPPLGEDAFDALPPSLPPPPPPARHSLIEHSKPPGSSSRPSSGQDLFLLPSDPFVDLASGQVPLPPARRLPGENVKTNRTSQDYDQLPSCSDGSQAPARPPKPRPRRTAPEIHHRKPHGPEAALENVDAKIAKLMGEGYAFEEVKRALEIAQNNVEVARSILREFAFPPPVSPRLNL
In turn, `Cn1cnnc1[C@]1(c2cccc(-c3cc4ccccc4[nH]c3=O)c2)C[C@H](C)C1` [compound 4, Cmpd. 4] had an IC50 of 1190 nM.
As to `C[C@H]1CCCN(Cc2cccc3cc(-c4cccc([C@]5(c6nncn6C)C[C@@H](C)C5)c4)c(=O)[nH]c23)C1` [compound 6, Cmpd. 6], 16.8 nM corresponded to half-maximal inhibition (IC50). Against the preceding molecule, the IC50 is about 71-fold lower.
To `CC(NC1CCCC1)c1ccc(F)c2cc(-c3cccc([C@]4(c5nncn5C)C[C@@H](C)C4)c3)c(=O)[nH]c12` (stereo partly drawn) [compound 12, Cmpd. 12] belongs 19.7 nM.
